# Results as given in patent US11497706B2, “Antiperspirant and deodorant compositions” (The Procter & Gamble Company, priority 2017, dated 2022).
# Structures can show the parent of a compound that is named as a salt. Where two headings read alike, the source gives them in different places.
# Key:
# S. epidermidis = assay: Tier 1 Anaerobic MIC Assay; assay type: cell-based, Staphylococcus epidermidis (clinical isolate); settings: for MIC: Staphylococcus epidermidis, read-out: microbial inhibition concentration (MIC)
# Description: (§1) 1. Tier 1 Anaerobic MIC Assay
# (§2) The data in Table 2 above was generated with the following test method. The purpose of this assay is to determine if a compound or formulation has an antimicrobial effect in vitro.
# (§3) It is understood that when not specifically noted in this procedure: • a) All materials, reagents and equipment required for this procedure are of appropriate design and condition of cleanliness and/or sterility as determined by their intended use. • b) The operator has been trained in aseptic technique and has been qualified to perform the procedure and accurately interpret the results. • c) All media required for this procedure was manufactured by a reputable commercial source egg. Difco, Merck etc. and has been stored and prepared as per manufacturer's instructions. • d) All routine laboratory controls, including but not limited to, media function and growth promotion tests, verification of sterility and use of positive and negative controls are being conducted.
# (§4) Procedure: (All Procedures Performed in Anaerobic Chamber Except where Noted)
# (§5) Incubator at 37° C.; 20-200 ul channel pipette; 5-50 ul channel pipette; 1250 ul 8 channel Thermo Scientific Matrix pipette; 96 well plate shaker (located in incubator); Beckman Coulter deep well cap mat #267005; Beckman Coulter deep 96 well plates #267007; Falcon 96 well tissue culture plates #353072; Vortexer; Culture tubes/caps Disposable sterile gloves; Sterile petri dishes; Standard microbiological lab equipment (sterile pipettes, syringes, tips, loops, etc.); Glass bottles/flasks for media; Autoclave; Parafilm; Spectrophotometer.
# (§6) • 0.9% or 0.85% saline solution • BHI agar supplemented with 1% Tween 80 • BHI media supplemented with 1% Tween 80 3. Microbial Strains
# Staphylococcus epidermidis (clinical isolate)
# (§7) Prior to testing streak organisms for isolation on BHI with 1% Tween 80 plates, wrap with parafilm and place in 37° C. incubator. When isolated colonies appear remove one representative colony from each plate and place each in 5 ml of BHI with 1% Tween 80 media. Incubate at 37° C. with shaking overnight. Inoculate 20 ml BHI with 1% Tween 80 (per 96 deep well plate to be tested) with 20 ul of the overnight culture (1-1000 dilution).
# (§8) Compounds/formulations to be tested are diluted across a 96 deep well plate as shown below (for a 1% stock solution). 800 ul of 0.85% saline is added to wells A1 and B1 (as these will be the negative and positive control respectively). 800 ul each 1% stock solution+positive control are added to wells C1 through H1. 400 ul 0.85% saline are added to all other wells. 400 ul is then removed from #1 well added to the #2 well and mixed. This is then continued across the plate resulting in a 50% dilution between wells across the plate (this can be easily accomplished with an automatic 8 channel Matrix pipette set to withdraw, dispense and mix).
# (§9) In row A of a 96 deep well plate pipette 180 ul of sterile BHI with 1% Tween 80 as a negative growth control. All other wells receive 180 ul of inoculum. From the master plate introduce 20 ul to the corresponding row in the test plate using an 8-channel pipette. Loaded plates are placed on a plate shaker in the 37° C. incubator and incubated overnight. The next day read the O.D. 600 on a plate reader. The MIC is the last well from the right that has no bacterial growth.
# C. mucofaciens = assay: Tier 1 Anaerobic MIC Assay; assay type: cell-based, Corynebacterium mucofaciens (clinical isolate); settings: for MIC: Corynebacterium, read-out: microbial inhibition concentration (MIC)
# Description: as §1, §2, §3, §4, §5, §6
# Corynebacterium mucofaciens (clinical isolate)
# as §7, §8, §9
# [1] = system: two key underarm bacteria strains; assay: Raw material microbial inhibition, summary in words; assay type: cell-based; settings: C. mucofaciens and S. epidermidis
# Description: The data in Table 2 above was generated with the following test method.
# [2] = anaerobic, 37° C. overnight, O.D. 600
SMILES,MIC (S. epidermidis; [2]) [µg/mL],MIC (C. mucofaciens; [2]) [µg/mL],microbial inhibition concentration (MIC) (S. epidermidis; [2]) [ppm],microbial inhibition concentration (MIC) (C. mucofaciens; [2]) [ppm],performance against the bacteria as raw materials [1],other results
CCCCCCCCC(CO)CCCCCC (stereo not shown) [Hexyl Decanol],,,3031,6062,,
CCCCC(CC)COCC(O)CO (stereo not shown) [Ethylhexyl glycerin],,,12500,12500,,
C=CCCCCCCCCC(=O)N[C@@H](Cc1ccccc1)C(=O)O [Sepiwhite],,,1000,2000,performing well,
N=C(N)c1ccc(OCCCCCCOc2ccc(C(=N)N)cc2)cc1 [hexamidine],,,,,,MIC (S. epidermidis): 7 µg/mL; MIC (C. mucofaciens): < 2 µg/mL
[Cl-].[Na+] [NaCl],,,>25000,>25000,,
O=C([O-])[O-].[Ca+2] [calcium carbonate],,,>2500,>2500,performing moderately well,
[Ca+2].[Cl-].[Cl-] [CaCl],,,>50000,>50000,,
CCCCC/C=C\C/C=C\CCCCCCCC(=O)O [Linoleic acid],3120,3120,,,,
CCCCCCCCCCCCCC(=O)OC(C)C [Isopropyl Myristate],> 59000,> 59000,,,,
CC(C)=CCCC(C)=CCCC(C)=CCO [Farnesol],5940,47500,,,,

# More lines, main results first:
MIC (S. epidermidis; [2]) [µg/mL],MIC (C. mucofaciens; [2]) [µg/mL],SMILES,microbial inhibition concentration (MIC) (S. epidermidis; [2]) [ppm],microbial inhibition concentration (MIC) (C. mucofaciens; [2]) [ppm],performance against the bacteria as raw materials [1],other results
> 49000,> 49000,C/C(=C\CO)CCC[C@H](C)CCC[C@H](C)CCCC(C)C [Phytol],,,,
1500,1500,CC(C)=CCCC(C)=CC=O [citral],,,performing well,
10,< 5,"Cc1cc(CC(C)CC(C)(C)C)n(O)c(=O)c1.NCCO (stereo not shown) [piroctone olamine, 1-Hydroxy-4-methyl-6-(2,4,4-trimethylpentyl)-2-pyridone monoethanolamine salt, reference compound]",,,perform particularly well,
773,773,C=CCc1ccc(O)c(OC)c1 [eugenol],,,performing well,
> 49000,> 49000,C=CC(C)(O)CCC=C(C)CCC=C(C)C (stereo not shown) [Nerolidol],,,,
1090,1090,CC/C=C\C/C=C\C/C=C\CCCCCCCC(=O)O [linolenic acid],,,,
3060,1530,COC(=O)CCC(=O)OC [dimethyl succinate],,,performing well,
1600,1600,CCOC(=O)CC(O)(CC(=O)OCC)C(=O)OCC [triethyl citrate],,,performing well,
